Data: patent US12365696B2, “Small-molecule focal adhesion kinase (FAK) inhibitors” (DANA-FARBER CANCER INSTITUTE, INC., priority 2019, dated 2025)
Read-outs that look alike come from different tables or passages of the source.

Legend:
[1] = target: PIK3CA(M1043I) (Homo sapiens (Human), UniProt P42336, M1043I); assay: KINOMEscan; assay type: binding; settings: 10000 nM, read-out: Percent Control
[2] = target: GRK1 (Homo sapiens (Human), UniProt Q15835); assay: KINOMEscan; assay type: binding; settings: GRK1, 10000 nM; read-out: Percent Control
[3] = target: MLK1 (Homo sapiens (Human), UniProt P80192); assay: KINOMEscan; assay type: binding; settings: MLK1, 10000 nM; read-out: Percent Control
[4] = target: AAK1 (Homo sapiens (Human), UniProt Q2M2I8); assay: KINOMEscan; assay type: binding; settings: AAK1, 10000 nM; read-out: Percent Control
[5] = test system: MDA-MB-231 cells; assay: ultra-low adherent 3D-spheroid suspension cell viability (3D Cell Titer-Glo), 120 hours; assay type: cell-based; settings: Homo sapiens
Experimental: For ultra-low adherent 3D-spheroid suspensions, MDA-MB-231 cells were plated in 384-well format in media containing 10% Matrigel® and allowed to form spheroids overnight. Cells were treated with indicated molecules from compound stock plates using a JANUS® Workstation pin tool for 120 hours. To measure cell viability, 3D Cell Titer-Glo® was added to wells for 15 minutes at room temperature and luminescence was measured on an EnVision™ 2104 Multilabel Plate Reader.

[6] = target: EGFR(L747-S752del, P753S) (Homo sapiens (Human), UniProt P00533, DEL747-752/P753S); assay: KINOMEscan; assay type: binding; settings: 10000 nM, read-out: Percent Control
[7] = target: MAP4K5 (Homo sapiens (Human), UniProt Q9Y4K4); assay: KINOMEscan; assay type: binding; settings: MAP4K5, 10000 nM; read-out: Percent Control
[8] = target: MAP4K2 (Homo sapiens (Human), UniProt Q12851); assay: KINOMEscan; assay type: binding; settings: MAP4K2, 10000 nM; read-out: Percent Control
[9] = target: YANK2 (Homo sapiens (Human), UniProt Q9NY57); assay: KINOMEscan; assay type: binding; settings: YANK2, 10000 nM; read-out: Percent Control
[10] = target: EPHB6 (Homo sapiens (Human), UniProt O15197); assay: KINOMEscan; assay type: binding; settings: EPHB6, 10000 nM; read-out: Percent Control
[11] = target: PIK3CD (Homo sapiens (Human), UniProt O00329); assay: KINOMEscan; assay type: binding; settings: 10000 nM, read-out: Percent Control
[12] = target: PLK1 (Homo sapiens (Human), UniProt P53350); assay: Biochemical IC50 (Invitrogen) of off-targets
[13] = target: DCLK1 (Homo sapiens (Human), UniProt O15075); assay: Biochemical IC50 (Invitrogen) of off-targets
[14] = target: STK33 (Homo sapiens (Human), UniProt Q9BYT3); assay: Biochemical IC50 (Invitrogen) of off-targets
[15] = target: TNK1 (Homo sapiens (Human), UniProt Q13470); assay: Biochemical IC50 (Invitrogen) of off-targets
[16] = target: DCLK2 (Homo sapiens (Human), UniProt Q8N568); assay: Biochemical IC50 (Invitrogen) of off-targets

Sequence of MAP4K2 (Q12851 whole entry): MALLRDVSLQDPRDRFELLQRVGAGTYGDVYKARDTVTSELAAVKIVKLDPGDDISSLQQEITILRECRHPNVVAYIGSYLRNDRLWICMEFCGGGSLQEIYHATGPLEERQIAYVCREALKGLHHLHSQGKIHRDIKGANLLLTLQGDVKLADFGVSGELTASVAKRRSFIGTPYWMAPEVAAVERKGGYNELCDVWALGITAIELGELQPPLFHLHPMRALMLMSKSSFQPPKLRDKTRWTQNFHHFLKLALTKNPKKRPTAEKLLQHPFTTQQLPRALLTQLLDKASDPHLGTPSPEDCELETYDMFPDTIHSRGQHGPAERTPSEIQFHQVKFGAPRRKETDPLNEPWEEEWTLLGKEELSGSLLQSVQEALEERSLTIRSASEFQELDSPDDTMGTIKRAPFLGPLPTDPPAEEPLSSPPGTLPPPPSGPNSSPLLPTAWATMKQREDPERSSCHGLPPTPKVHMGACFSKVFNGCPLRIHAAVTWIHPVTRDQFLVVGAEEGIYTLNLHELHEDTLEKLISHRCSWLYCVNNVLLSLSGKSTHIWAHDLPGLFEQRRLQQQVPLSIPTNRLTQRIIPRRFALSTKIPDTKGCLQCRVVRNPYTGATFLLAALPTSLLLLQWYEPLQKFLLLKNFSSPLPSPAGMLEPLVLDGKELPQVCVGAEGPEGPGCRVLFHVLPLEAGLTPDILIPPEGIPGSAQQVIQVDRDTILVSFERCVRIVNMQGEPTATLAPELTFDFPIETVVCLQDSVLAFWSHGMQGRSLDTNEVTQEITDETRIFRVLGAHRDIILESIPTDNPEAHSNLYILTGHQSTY
Sequence of EGFR(L747-S752del, P753S) (P00533 other isoform, or with tags, fused parts or gaps P753S): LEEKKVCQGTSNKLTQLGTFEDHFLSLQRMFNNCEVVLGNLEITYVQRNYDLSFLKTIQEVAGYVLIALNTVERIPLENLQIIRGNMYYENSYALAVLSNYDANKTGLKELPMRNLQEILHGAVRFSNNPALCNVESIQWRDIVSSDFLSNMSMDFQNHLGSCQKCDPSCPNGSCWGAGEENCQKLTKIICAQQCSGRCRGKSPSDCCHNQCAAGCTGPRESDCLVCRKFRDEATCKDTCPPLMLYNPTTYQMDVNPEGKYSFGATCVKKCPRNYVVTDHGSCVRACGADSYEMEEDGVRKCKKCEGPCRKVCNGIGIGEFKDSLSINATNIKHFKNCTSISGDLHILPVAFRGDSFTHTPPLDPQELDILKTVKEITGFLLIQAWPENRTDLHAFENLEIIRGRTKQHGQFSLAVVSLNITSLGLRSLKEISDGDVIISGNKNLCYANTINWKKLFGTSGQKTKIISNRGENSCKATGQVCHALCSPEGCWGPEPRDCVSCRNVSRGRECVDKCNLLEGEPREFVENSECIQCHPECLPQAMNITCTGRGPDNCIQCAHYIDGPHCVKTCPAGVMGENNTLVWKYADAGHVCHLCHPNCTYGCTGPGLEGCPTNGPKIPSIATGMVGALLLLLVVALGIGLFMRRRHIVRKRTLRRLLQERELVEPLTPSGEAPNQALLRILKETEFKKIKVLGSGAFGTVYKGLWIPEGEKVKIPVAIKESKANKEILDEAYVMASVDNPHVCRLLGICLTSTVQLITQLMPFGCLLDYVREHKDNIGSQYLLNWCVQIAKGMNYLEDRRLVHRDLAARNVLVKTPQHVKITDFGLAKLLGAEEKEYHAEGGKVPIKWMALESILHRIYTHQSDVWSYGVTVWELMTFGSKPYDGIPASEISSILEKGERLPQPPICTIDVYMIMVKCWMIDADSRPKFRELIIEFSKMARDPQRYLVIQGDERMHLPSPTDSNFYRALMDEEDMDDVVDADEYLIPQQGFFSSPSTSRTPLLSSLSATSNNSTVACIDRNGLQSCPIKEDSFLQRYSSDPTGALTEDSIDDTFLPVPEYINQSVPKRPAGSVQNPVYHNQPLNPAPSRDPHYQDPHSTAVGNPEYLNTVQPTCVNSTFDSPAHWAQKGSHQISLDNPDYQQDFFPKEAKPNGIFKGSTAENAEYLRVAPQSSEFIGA
Sequence of PIK3CA(M1043I) (P42336 whole entry M1043I): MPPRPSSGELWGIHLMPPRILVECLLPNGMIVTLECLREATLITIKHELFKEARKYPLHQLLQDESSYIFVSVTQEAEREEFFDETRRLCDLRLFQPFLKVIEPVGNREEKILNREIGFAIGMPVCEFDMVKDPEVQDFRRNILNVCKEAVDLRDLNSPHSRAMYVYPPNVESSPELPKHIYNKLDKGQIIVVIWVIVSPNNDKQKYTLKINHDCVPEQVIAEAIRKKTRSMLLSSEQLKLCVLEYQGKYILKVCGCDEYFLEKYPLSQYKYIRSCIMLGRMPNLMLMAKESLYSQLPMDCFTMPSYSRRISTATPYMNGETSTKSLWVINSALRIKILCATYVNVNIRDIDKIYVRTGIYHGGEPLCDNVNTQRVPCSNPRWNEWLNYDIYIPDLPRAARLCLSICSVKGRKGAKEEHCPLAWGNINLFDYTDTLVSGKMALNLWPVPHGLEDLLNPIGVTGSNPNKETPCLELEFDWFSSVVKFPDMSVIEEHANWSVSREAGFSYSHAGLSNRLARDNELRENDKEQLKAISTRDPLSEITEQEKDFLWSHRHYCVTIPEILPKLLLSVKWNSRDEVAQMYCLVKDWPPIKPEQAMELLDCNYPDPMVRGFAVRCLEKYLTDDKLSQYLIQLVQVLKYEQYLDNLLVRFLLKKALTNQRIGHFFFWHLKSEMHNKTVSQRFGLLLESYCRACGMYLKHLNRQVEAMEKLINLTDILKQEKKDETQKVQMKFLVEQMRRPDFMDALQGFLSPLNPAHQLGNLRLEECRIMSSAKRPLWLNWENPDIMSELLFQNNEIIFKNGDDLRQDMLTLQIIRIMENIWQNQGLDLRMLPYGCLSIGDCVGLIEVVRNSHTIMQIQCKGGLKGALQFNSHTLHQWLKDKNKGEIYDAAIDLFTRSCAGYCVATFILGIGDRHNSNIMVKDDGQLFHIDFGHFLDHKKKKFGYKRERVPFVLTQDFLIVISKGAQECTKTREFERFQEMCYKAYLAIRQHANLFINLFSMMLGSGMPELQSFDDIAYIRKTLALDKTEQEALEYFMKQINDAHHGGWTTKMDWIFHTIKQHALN
Sequence of EPHB6 (O15197 32-1021): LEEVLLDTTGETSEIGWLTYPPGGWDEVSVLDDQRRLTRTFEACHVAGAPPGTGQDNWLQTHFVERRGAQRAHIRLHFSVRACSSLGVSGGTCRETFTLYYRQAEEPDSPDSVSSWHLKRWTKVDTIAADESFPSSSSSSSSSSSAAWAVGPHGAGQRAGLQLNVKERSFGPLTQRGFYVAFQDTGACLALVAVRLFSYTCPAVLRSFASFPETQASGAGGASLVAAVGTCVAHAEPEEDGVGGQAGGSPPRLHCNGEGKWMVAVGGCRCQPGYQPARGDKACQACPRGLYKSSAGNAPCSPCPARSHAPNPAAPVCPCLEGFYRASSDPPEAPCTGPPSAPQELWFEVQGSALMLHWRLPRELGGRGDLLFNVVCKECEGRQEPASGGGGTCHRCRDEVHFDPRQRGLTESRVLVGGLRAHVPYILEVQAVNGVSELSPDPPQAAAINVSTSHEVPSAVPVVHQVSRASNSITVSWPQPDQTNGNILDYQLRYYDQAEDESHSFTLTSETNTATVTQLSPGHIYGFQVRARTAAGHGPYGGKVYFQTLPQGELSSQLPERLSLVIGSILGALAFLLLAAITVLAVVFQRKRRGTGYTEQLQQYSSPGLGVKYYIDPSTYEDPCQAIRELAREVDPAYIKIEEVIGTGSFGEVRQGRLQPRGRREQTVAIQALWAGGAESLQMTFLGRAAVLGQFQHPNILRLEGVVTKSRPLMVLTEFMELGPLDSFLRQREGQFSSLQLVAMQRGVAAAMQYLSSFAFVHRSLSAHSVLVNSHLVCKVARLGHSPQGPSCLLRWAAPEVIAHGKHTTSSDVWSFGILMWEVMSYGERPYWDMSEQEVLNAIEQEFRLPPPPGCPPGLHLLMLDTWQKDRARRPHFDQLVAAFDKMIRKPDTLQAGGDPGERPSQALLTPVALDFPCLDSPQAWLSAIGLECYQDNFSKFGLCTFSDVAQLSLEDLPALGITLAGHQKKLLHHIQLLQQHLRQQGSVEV
Sequence of GRK1 (Q15835 whole entry): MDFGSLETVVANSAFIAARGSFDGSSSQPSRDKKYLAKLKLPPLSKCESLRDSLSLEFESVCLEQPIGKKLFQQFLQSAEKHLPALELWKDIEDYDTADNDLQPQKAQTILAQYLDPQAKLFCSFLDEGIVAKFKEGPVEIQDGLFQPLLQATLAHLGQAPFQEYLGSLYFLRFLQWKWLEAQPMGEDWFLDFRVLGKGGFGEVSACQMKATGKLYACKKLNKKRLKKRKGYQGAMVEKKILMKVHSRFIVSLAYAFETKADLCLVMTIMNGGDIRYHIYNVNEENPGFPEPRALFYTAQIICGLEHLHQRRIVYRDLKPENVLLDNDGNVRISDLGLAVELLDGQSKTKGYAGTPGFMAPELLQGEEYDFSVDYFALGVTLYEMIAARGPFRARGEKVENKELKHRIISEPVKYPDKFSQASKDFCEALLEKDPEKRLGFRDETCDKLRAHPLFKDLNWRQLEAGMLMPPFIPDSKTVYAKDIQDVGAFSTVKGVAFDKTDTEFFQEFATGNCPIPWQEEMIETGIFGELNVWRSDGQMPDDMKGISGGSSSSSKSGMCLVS
Sequence of YANK2 (Q9NY57 whole entry): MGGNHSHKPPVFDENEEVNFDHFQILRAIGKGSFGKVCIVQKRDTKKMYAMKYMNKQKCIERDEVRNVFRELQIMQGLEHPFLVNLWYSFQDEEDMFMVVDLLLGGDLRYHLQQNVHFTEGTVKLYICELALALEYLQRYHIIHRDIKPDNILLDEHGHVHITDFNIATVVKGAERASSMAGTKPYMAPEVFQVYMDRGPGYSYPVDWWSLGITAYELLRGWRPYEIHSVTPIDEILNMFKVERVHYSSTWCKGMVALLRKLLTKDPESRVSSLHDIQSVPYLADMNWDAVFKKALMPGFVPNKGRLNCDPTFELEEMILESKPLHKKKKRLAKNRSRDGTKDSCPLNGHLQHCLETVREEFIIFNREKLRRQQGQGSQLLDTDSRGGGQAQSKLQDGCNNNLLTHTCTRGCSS

In the case of `COc1cc(N2CCC(N3CCN(C)CC3)CC2)ccc1Nc1ncc2c(n1)N(C)c1sc(C)nc1C(=O)N2` [Compound 3, 6-((2-methoxy-4-(4-(4-methylpiperazin-1-yl)piperidin-1-yl)phenyl)amino)-2,4-dimethyl-4,9-dihydro-10H-pyrimido[5,4-b]thiazolo[5,4-e][1,4]diazepin-10-one], the remaining binding at 10 µM ([1]; PIK3CA(M1043I)) is reported as 87%, the remaining binding at 10 µM [2] is reported as 86% and the remaining binding at 10 µM [3] is reported as 94%. The remaining binding at 10 µM [4] was 48%, the IC50 [5] was 6.8 µM and the remaining binding at 10 µM [6] was 99%. It also gave a remaining binding at 10 µM [7] of 82%, a remaining binding at 10 µM [8] of 100% and a remaining binding at 10 µM [9] of 85%. It also gave a remaining binding at 10 µM [10] of 45% and a remaining binding at 10 µM [11] of 98%.

`COc1cc(N2CCC(N3CCN(C)CC3)CC2)ccc1Nc1ncc2c(n1)N(C)c1sc(C)nc1C(=O)N2C` [Compound 5, 6-((2-methoxy-4-(4-(4-methylpiperazin-1-yl)piperidin-1-yl)phenyl)amino)-2,4,9-trimethyl-4,9-dihydro-10H-pyrimido[5,4-b]thiazolo[5,4-e][1,4]diazepin-10-one] gave an IC50 [12] of 8.28 µM, a remaining binding at 10 µM ([1]; PIK3CA(M1043l)) of 100% and a remaining binding at 10 µM [2] of 81%. The remaining binding at 10 µM [3] was 41%, the remaining binding at 10 µM [6] was 91% and the IC50 [13] was 6.5 µM. It also gave an IC50 [14] of 2.13 µM, a remaining binding at 10 µM [7] of 91% and a remaining binding at 10 µM [8] of 94%. For the same molecule, the IC50 [15] was 3.17 µM, the remaining binding at 10 µM [9] was 100% and the remaining binding at 10 µM [10] was 100%. For the same molecule, the remaining binding at 10 µM [11] was 92% and the IC50 [16] was 3.12 µM.
